From article PMC8004991, “The Interaction of the Flavonoid Fisetin with Human Glutathione Transferase A1-1” (Metabolites, 2021)

Biological target: T1, human glutathione transferase A1-1 (hGSTA1-1) (Homo sapiens, UniProt P08263)
T1 construct: gene GSTA1
T1 sequence (P08263 2-222): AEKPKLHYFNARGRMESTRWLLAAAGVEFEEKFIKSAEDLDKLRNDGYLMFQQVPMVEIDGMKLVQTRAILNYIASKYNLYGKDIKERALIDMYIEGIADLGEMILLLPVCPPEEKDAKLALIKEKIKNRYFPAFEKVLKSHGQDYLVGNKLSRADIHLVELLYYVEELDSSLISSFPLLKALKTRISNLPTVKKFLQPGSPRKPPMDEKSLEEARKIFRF
Test: CDNB/GSH conjugation assay with purified recombinant hGSTA1-1; IC50 and steady-state inhibition kinetics (Ki […] vs GSH, […] vs CDNB)
Format: biochemical
From the text: Fisetin appears to be a strong inhibitor for hGSTA1-1

With `O=c1c(O)c(-c2ccc(O)c(O)c2)oc2cc(O)ccc12` [fisetin] the IC50 was 1.2 ± 0.1 µM.
